According to patent US20230113037A1 (Bayer Aktiengesellschaft, priority 2019, published 2023):
Values joined by “and” are separate entries in the source; they are usually repeats but may differ in a detail not shown here. Equal values may be shown once. Read-outs that look alike come from different tables or passages of the source.

Key:
[1] = target: T1, AHR (Mus musculus, UniProt P30561); assay: In vitro assay 3: antagonism in mouse cell line (AHR transactivation, firefly luciferase reporter, kynurenic acid prestimulated); assay type: cell-based
T1 sequence (P30561 1-848 P471L/N533S/M589L): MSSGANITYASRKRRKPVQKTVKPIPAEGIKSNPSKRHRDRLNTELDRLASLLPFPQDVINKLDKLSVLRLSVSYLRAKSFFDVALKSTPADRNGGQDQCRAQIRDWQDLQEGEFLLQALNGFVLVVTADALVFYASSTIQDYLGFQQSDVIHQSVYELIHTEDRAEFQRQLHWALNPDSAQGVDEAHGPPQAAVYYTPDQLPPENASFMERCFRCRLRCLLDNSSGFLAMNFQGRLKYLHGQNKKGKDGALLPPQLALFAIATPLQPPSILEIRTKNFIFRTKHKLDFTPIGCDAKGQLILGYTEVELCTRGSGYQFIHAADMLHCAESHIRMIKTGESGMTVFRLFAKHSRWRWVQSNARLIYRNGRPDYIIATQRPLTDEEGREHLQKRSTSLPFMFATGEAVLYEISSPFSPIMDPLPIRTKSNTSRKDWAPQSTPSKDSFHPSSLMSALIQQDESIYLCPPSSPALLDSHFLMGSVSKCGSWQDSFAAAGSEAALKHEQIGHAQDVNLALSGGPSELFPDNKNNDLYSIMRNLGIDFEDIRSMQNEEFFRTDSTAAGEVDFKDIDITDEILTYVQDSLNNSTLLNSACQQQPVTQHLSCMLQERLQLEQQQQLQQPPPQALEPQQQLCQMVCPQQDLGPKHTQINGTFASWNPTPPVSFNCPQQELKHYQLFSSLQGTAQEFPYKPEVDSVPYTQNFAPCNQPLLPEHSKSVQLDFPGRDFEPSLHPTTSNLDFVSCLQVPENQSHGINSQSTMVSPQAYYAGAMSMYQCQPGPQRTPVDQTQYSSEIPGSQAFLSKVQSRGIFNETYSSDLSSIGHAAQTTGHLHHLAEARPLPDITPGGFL
Procedure, shortened: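 Antagonism read as reduced firefly luciferase signal (SteadyGlo) from a stably transfected AHR/DRE reporter in a mouse line prestimulated with kynurenic acid. Data normalized to controls, the full-inhibition control being cells without kynurenic acid; multiple determinations given as average or median values.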

[2] = target: T2, AHR (Homo sapiens, UniProt P35869); assay: In vitro assay 1: antagonism in human cell line (AHR transactivation, firefly luciferase reporter, kynurenic acid prestimulated); assay type: cell-based; details: AHR Antagonism Human IC50 [M]
T2 construct: U87 MG glioblastoma cells (ATCC #HTB-14) endogenously expressing AHR; endogenous in cells; host or cells: U87 MG glioblastoma cells (ATCC #HTB-14)
T2 sequence (P35869 11-848): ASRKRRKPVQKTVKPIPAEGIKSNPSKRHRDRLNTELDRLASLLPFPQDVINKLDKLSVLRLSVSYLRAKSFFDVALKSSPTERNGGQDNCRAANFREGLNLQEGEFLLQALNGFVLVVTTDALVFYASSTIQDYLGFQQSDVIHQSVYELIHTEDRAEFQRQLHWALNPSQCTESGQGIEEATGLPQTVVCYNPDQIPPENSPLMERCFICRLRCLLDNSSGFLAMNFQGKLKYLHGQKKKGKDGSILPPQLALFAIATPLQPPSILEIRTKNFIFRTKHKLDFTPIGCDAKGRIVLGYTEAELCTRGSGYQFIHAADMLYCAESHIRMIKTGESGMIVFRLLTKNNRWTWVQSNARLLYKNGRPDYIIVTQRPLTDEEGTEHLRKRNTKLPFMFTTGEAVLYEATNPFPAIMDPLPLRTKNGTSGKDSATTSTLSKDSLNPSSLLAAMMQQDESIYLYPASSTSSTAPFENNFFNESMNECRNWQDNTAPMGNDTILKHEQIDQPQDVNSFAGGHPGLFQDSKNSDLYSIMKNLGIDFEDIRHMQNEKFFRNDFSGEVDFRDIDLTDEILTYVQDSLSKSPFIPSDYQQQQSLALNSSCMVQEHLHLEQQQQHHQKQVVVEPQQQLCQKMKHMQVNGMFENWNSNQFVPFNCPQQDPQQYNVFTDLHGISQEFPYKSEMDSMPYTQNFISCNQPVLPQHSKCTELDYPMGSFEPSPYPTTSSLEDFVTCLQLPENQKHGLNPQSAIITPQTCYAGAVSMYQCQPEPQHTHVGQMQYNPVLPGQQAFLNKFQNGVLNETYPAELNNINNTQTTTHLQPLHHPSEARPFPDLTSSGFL
Procedure, shortened: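 Antagonism is measured against kynurenic acid prestimulation in U87 MG glioblastoma cells carrying stable DRE-luciferase and Renilla reporters. Positive inhibition control: 150 μM kynurenic acid with 5 μM staurosporine. Values are normalized to controls; repeats are averaged or given as medians.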

[3] = mouse Hepa 1c1c7 cells, 200 μM kynurenic acid, 20 hours, read-out: AHR Antagonism Mouse IC50

| SMILES | IC50 [1, 3] | IC50 [2] [M] | IC50 ([1]; read-out: AHR Antagonism Mouse IC50, mouse Hepa 1c1c7 cells, 200 μM kynurenic acid, 20 hours) [nM] |
| --- | --- | --- | --- |
| CSc1ccc(-c2nc3c4ccccc4nc(N[C@@H]4CCCCNC4=O)n3n2)c(F)c1 [Example 630, (3R)-3-({2-[2-fluoro-4-(methylsulfanyl)phenyl][1,2,4]triazolo[1,5-c]quinazolin-5-yl}amino)azepan-2-one] | 0.861 nM | 4.83e-10 |  |
| O=C1NCCCC[C@H]1Nc1nc2ccccc2c2nc(-c3ccc(O)cc3F)nn12 [Example 634, (3R)-3-{[2-(2-fluoro-4-hydroxyphenyl)[1,2,4]triazolo[1,5-c]quinazolin-5-yl]amino}azepan-2-one] | 206 nM | 9.09e-08 |  |
| Cc1cncc(-c2nc3c4ccccc4nc(N[C@@H]4CCCCNC4=O)n3n2)c1 [Example 636, (3R)-3-{[2-(5-methylpyridin-3-yl)[1,2,4]triazolo[1,5-c]quinazolin-5-yl]amino}azepan-2-one] | 5.98 nM | 2.32e-08 |  |
| Nc1ccc(-c2nc3c4ccccc4nc(N[C@@H]4CCCCNC4=O)n3n2)cn1 [Example 637, (3R)-3-{[2-(6-aminopyridin-3-yl)[1,2,4]triazolo[1,5-c]quinazolin-5-yl]amino}azepan-2-one] | 21.4 nM | 1.15e-08 |  |
| O=C1NCCCC[C@H]1Nc1nc2ccccc2c2nc(-c3ccnc(F)c3)nn12 [Example 638, (3R)-3-{[2-(2-fluoropyridin-4-yl)[1,2,4]triazolo[1,5-c]quinazolin-5-yl]amino}azepan-2-one] | 10.4 nM | 4e-09 |  |
| O=C1NCCCC[C@H]1Nc1nc2ccccc2c2nc(-c3cccnc3F)nn12 [Example 640, (3R)-3-{[2-(2-fluoropyridin-3-yl)[1,2,4]triazolo[1,5-c]quinazolin-5-yl]amino}azepan-2-one] | 30.7 nM | 2.54e-08 |  |
| Cc1ncc(-c2nc3c4ccccc4nc(N[C@@H]4CCCCNC4=O)n3n2)cc1F [Example 641, (3R)-3-{[2-(5-fluoro-6-methylpyridin-3-yl)[1,2,4]triazolo[1,5-c]quinazolin-5-yl]amino}azepan-2-one] | 2.46 nM | 6.85e-09 |  |
| O=C1NCCCC[C@H]1Nc1nc2ccccc2c2nc(-c3cncnc3)nn12 [Example 642, (3R)-3-{[2-(pyrimidin-5-yl)[1,2,4]triazolo[1,5-c]quinazolin-5-yl]amino}azepan-2-one] | 683 nM | 3.34e-07 |  |
| O=C1NCCCC[C@H]1Nc1nc2ccccc2c2nc(-c3cccnn3)nn12 [Example 644, (3R)-3-{[2-(pyridazin-3-yl)[1,2,4]triazolo[1,5-c]quinazolin-5-yl]amino}azepan-2-one] | 61.7 nM | 1.03e-07 |  |
| O=C1NCCCC[C@H]1Nc1nc2ccccc2c2nc(-c3cnsc3)nn12 [Example 645, (3R)-3-{[2-(1,2-thiazol-4-yl)[1,2,4]triazolo[1,5-c]quinazolin-5-yl]amino}azepan-2-one] | 6.64 nM | 1.66e-08 |  |
| O=C1NCCCC[C@H]1Nc1nc2ccccc2c2nc(-c3cnn(C4CCNCC4)c3)nn12 [Example 646, (3R)-3-({2-[1-(piperidin-4-yl)-1H-pyrazol-4-yl][1,2,4]triazolo[1,5-c]quinazolin-5-yl}amino)azepan-2-one] | > 20000 nM and 11800 nM | 2.89e-06 |  |
| CS(=O)(=O)c1ccccc1-c1nc2c3ccccc3nc(N[C@@H]3CCCCNC3=O)n2n1 [Example 649, (3R)-3-({2-[2-(methanesulfonyl)phenyl][1,2,4]triazolo[1,5-c]quinazolin-5-yl}amino)azepan-2-one] | 27.3 nM | 3.8e-07 |  |
| CS(=N)(=O)c1ccccc1-c1nc2c3ccccc3nc(N[C@@H]3CCCCNC3=O)n2n1 (stereo partly drawn) [Example 650, (3R)-3-({2-[2-(S-methylsulfonimidoyl)phenyl][1,2,4]triazolo[1,5-c]quinazolin-5-yl}amino)azepan-2-one] |  | 1.1e-07 | 67.1 |

Now from value to molecule, other results behind:

| IC50 [1, 3] | IC50 [2] [M] | SMILES | IC50 ([1]; read-out: AHR Antagonism Mouse IC50, mouse Hepa 1c1c7 cells, 200 μM kynurenic acid, 20 hours) [nM] |
| --- | --- | --- | --- |
| 0.326 nM | 6.68e-10 | COc1ccc(-c2nc3c4ccccc4nc(N[C@@H]4CCCCNC4=O)n3n2)cc1C [Example 627, (3R)-3-{[2-(4-methoxy-3-methylphenyl)[1,2,4]triazolo[1,5-c]quinazolin-5-yl]amino}azepan-2-one] |  |
| 190 nM | 4.88e-08 | O=C1NCCCC[C@H]1Nc1nc2ccccc2c2nc(-c3ccc(O)c(F)c3)nn12 [Example 629, (3R)-3-{[2-(3-fluoro-4-hydroxyphenyl)[1,2,4]triazolo[1,5-c]quinazolin-5-yl]amino}azepan-2-one] |  |
| 3.53 nM | 1e-09 | COc1ccc(-c2nc3c4ccccc4nc(N[C@@H]4CCCCNC4=O)n3n2)c(F)c1 [Example 631, (3R)-3-{[2-(2-fluoro-4-methoxyphenyl)[1,2,4]triazolo[1,5-c]quinazolin-5-yl]amino}azepan-2-one] |  |
| 0.784 nM | 1.29e-09 | CC(C)Oc1ccc(-c2nc3c4ccccc4nc(N[C@@H]4CCCCNC4=O)n3n2)cc1F [Example 632, (3R)-3-[(2-{3-fluoro-4-[(propan-2-yl)oxy]phenyl}[1,2,4]triazolo[1,5-c]quinazolin-5-yl)amino]azepan-2-one] |  |
| 0.64 nM | 1.14e-09 | O=C1NCCCC[C@H]1Nc1nc2ccccc2c2nc(-c3ccc(F)c(F)c3)nn12 [Example 633, (3R)-3-{[2-(3,4-difluorophenyl)[1,2,4]triazolo[1,5-c]quinazolin-5-yl]amino}azepan-2-one] |  |
| 1.1 nM | 9.49e-10 | COc1ccc(-c2nc3c4ccccc4nc(N[C@@H]4CCCCNC4=O)n3n2)cc1F [Example 635, (3R)-3-{[2-(3-fluoro-4-methoxyphenyl)[1,2,4]triazolo[1,5-c]quinazolin-5-yl]amino}azepan-2-one] |  |
| > 20000 nM and 12800 nM | 6.34e-06 | COc1ccc(-c2nc3c4c(C5CNC5)cccc4nc(N[C@@H]4CCCCNC4=O)n3n2)cc1 [Example 647, (3R)-3-{[10-(azetidin-3-yl)-2-(4-methoxyphenyl)[1,2,4]triazolo[1,5-c]quinazolin-5-yl]amino}azepan-2-one] |  |
| > 20000 nM | 2.58e-07 | COc1ccc(-c2nc3c4cccc(C(=O)OC(C)C)c4nc(N[C@@H]4CCCCNC4=O)n3n2)cc1 [Example 653, propan-2-yl 2-(4-methoxyphenyl)-5-{[(3R)-2-oxoazepan-3-yl]amino}[1,2,4]triazolo[1,5-c]quinazoline-7-carboxylate] |  |
| 221 nM | 1.03e-07 | COc1ccc(-c2nc3c4cccc(N5CCOCC5)c4nc(N[C@@H]4CCCCNC4=O)n3n2)cc1 [Example 654, (3R)-3-{[2-(4-methoxyphenyl)-7-(morpholin-4-yl)[1,2,4]triazolo[1,5-c]quinazolin-5-yl]amino}azepan-2-one] |  |
| 256 nM | 1.39e-07 | COc1ccc(-c2nc3c4c(N5CCOCC5)cccc4nc(N[C@@H]4CCCCNC4=O)n3n2)cc1 [Example 655, (3R)-3-{[2-(4-methoxyphenyl)-10-(morpholin-4-yl)[1,2,4]triazolo[1,5-c]quinazolin-5-yl]amino}azepan-2-one] |  |
